Measured values: US4843079A, “Fused heteroalkylene quinolinamines” (Hoechst-Roussel Pharmaceuticals, Inc., priority 1988, dated 1989)
Where a name gives a salt, the structure may show the parent alone. Read-outs that look alike come from different tables or passages of the source.

Experiments:
[1] = molecular target: acetylcholinesterase (Homo sapiens, UniProt P22303); test: biochemical
[2] = tested on: scopolamine Induced Memory Deficit; test: Dark Avoidance Assay (scopolamine-impaired memory); type: in vivo; details: mice, retested 24 hours later
Description: This utility of the compounds of the present invention mentioned above can also be ascertained by determining the ability of these compounds to restore cholinergically deficient memory in the Dark Avoidance Assay. In this assay mice are tested for their ability to remember an unpleasant stimulus for a period of 24 hours. A mouse is placed in a chamber that contains a dark compartment; a strong incandescent light drives it to the dark compartment, where an electric shock is administered through metal plates on the floor. The animal is removed from the testing apparatus and tested again, 24 hours later, for the ability to remember the electric shock.
If scopolamine, an anticholinergic that is known to cause memory impairment, is administered before an animal's initial exposure to the test chamber, the animal re-enters the dark compartment shortly after being placed in the test chamber 24 hours later. This effect of scopolamine is blocked by an active test compound, resulting in a greater interval before re-entry in the dark compartment.
The results for an active compound are expressed as the percent of a group of animals in which the effect of scopolamine is blocked, as manifested by an increased interval between being placed in the test chamber and re-entering the dark compartment.

[3] = photometric method of Ellman et al., read-out: IC50, Cholinesterase Inhibition

Chain of acetylcholinesterase (P22303 32-614): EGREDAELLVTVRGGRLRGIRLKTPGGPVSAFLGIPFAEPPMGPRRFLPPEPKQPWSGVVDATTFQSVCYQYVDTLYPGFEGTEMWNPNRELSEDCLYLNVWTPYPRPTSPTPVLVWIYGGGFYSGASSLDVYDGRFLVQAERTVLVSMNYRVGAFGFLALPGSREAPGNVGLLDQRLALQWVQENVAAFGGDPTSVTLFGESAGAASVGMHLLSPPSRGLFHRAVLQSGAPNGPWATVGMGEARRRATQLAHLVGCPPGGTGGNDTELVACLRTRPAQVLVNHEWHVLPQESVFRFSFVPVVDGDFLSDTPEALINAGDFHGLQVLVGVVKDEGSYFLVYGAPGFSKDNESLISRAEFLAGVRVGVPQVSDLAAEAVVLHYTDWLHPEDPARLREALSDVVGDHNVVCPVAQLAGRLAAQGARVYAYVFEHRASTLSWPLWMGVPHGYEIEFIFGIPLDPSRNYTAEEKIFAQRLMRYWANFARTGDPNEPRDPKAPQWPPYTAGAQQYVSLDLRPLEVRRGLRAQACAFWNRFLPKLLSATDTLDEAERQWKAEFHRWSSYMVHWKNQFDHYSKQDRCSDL

Compound | IC50 [1, 3] | % of animals with scopolamine Induced Memory Deficit Reversed ([2]; dose 0.31 mg/kg body weight) | also measured
Nc1c2c(nc3ccccc13)CSC2 [9-Amino-1,3-dihydrothieno[3,4-b]quinoline] | 47 nM | 14% | 
Nc1c2c(nc3ccccc13)CCS2 [9-amino-2,3-dihydrothieno[3,2-b]quinoline] | 440 nM |  | 
Nc1c2c(nc3ccccc13)CCOC2 [10-Amino-3,4-dihydro-1H-pyrano[4,3-b]quinoline fumarate] | 200 nM |  | 
Nc1c2c(nc3ccccc13)CCSC2 [10-amino-3,4-dihydro-1H-thiopyrano[4,3-b]quinoline] | 970 nM |  | % of animals with scopolamine Induced Memory Deficit Reversed ([2]; dose 0.16 mg/kg body weight): 27%
Nc1c2c(nc3cc(F)ccc13)CCSC2 [10-amino-3,4-dihydro-7-fluoro-1H-thiopyrano [4,3-b]quinoline] | 150 nM | 67% | 
Cc1ccc2c(N)c3c(nc2c1)CCSC3 [10-amino-3,4-dihydro-7-methyl-1H-thiopyrano[4,3-b]quinoline] | 190 nM |  | 
Nc1c2c(nc3cc(C(F)(F)F)ccc13)CCSC2 [10-amino-3,4-dihydro-7-trifluoromethyl-1H-thiopyrano[4,3-b]quinoline] |  |  | IC50 [1]: 640 nM
c1ccc(CNc2c3c(nc4ccccc24)CCSC3)cc1 [10-benzylamino-3,4-dihydro-1H-thiopyrano[4,3-b]quinoline hydrochloride] |  |  | IC50 [1]: 3900 nM
CNC(=O)Oc1ccc2c(c1)[C@]1(C)CCN(C)[C@@H]1N2C [Physostigmine, reference compound] |  | 20% | 
